Reference: the supplement of paper PMC12463676, “Small-molecule dissolution of stress granules by redox modulation benefits ALS models” (Nature Chemical Biology, 2025)

Experiments:
lipoamide = compound: NC(=O)CCCCC1CCSS1 [lipoamide]; assay: thermal stability z-score vs DMSO; higher = more thermally stabilized by treatment; conditions: HeLa, lipoamide concentration 100 µM
Procedure: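 Cellular thermal proteome profiling in HeLa cells. Cells were treated with 100 µM lipoamide for 1 h, with or without 1 mM arsenate for a further 1 h, then heated to ten temperatures (37-66.3 °C), and soluble protein was quantified by TMT mass spectrometry relative to 0.1% DMSO controls. The thermal stability score (sum of log2 fold changes minus the abundance score) was transformed to a z-score; mean of n = 3 experiments.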

potassium arsenate = compound: O=[As]([O-])(O)O.[K+] [potassium arsenate]; assay: as above; conditions: HeLa; arsenate concentration 1 mM
Procedure: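 Cellular thermal proteome profiling in HeLa cells treated with 1 mM arsenate for 1 h (DMSO pretreatment), heated to ten temperatures (37-66.3 °C). Soluble protein was quantified by TMT mass spectrometry relative to DMSO controls; the thermal stability score was transformed to a z-score; mean of n = 3 experiments.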

[1] = arsenate co-treatment: 1 mM arsenate 1 h
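Further: each temperature applied for 3 min, abundance score taken as mean log2 fold change at the two lowest temperatures, z-score obtained by mean subtraction and division by SD.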

Chain of UniProt Q9H0A8 (Q9H0A8 whole entry): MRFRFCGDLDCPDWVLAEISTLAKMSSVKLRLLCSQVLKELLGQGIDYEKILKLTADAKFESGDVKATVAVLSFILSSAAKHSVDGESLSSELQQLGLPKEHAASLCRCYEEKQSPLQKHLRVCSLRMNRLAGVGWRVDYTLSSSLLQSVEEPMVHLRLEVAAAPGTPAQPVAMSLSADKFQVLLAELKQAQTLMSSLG
Chain of UniProt Q9GZQ3 (Q9GZQ3 whole entry): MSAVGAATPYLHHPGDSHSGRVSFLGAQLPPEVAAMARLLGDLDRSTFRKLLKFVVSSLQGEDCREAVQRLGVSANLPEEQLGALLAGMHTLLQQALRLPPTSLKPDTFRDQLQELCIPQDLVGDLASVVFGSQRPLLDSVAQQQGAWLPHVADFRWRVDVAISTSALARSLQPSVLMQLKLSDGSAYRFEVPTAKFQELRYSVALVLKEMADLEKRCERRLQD
Chain of UniProt Q8N668 (Q8N668 whole entry): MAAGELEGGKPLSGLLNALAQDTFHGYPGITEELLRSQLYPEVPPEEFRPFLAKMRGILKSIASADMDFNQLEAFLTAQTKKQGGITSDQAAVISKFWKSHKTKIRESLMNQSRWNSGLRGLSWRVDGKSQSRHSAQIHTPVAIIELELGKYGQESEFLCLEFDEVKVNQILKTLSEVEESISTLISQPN
Chain of UniProt Q99807 (Q99807 whole entry): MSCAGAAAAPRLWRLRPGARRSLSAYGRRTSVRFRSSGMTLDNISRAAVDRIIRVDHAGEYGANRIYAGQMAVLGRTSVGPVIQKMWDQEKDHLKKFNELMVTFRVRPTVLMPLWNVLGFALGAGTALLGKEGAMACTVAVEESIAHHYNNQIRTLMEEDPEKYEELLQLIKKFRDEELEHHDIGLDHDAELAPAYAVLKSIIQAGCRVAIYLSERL
Chain of UniProt P13073 (P13073 whole entry): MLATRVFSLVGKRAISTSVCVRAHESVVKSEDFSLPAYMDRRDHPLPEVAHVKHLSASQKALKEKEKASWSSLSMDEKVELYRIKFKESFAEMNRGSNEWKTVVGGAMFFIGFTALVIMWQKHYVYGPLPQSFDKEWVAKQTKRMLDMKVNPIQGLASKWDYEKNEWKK
Chain of UniProt Q96MW5 (Q96MW5 whole entry): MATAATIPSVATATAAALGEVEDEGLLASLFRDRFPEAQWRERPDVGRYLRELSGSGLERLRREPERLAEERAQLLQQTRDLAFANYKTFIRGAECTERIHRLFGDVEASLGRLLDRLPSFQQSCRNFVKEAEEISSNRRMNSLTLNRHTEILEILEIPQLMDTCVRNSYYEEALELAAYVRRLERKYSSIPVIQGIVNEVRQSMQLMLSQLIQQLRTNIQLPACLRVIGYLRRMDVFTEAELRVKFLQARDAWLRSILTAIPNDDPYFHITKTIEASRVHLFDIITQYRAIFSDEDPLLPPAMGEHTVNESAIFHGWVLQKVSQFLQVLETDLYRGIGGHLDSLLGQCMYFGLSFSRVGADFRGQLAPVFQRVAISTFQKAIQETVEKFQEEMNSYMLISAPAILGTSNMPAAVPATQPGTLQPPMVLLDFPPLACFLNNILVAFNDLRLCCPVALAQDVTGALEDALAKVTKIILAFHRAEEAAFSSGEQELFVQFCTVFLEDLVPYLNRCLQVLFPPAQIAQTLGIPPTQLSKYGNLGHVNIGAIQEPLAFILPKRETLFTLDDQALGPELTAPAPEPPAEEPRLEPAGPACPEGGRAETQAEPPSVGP
Chain of UniProt Q9Y6G5 (Q9Y6G5 whole entry): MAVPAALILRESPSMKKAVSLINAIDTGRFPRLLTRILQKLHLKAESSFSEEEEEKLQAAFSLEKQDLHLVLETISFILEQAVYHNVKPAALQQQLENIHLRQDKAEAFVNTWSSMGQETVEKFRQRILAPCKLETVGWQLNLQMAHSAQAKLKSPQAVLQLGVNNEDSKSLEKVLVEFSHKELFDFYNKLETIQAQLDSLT
Chain of UniProt Q5HYK3 (Q5HYK3 whole entry): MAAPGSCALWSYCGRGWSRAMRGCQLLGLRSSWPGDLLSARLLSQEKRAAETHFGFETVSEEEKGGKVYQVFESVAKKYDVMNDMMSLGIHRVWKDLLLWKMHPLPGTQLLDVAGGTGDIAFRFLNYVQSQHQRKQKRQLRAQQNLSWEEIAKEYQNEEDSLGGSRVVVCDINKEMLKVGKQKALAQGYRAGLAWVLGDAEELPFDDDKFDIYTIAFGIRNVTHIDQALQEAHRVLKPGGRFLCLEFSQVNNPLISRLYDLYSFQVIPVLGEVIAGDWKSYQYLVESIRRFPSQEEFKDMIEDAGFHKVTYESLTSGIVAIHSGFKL
Chain of UniProt Q9UNS2 (Q9UNS2 whole entry): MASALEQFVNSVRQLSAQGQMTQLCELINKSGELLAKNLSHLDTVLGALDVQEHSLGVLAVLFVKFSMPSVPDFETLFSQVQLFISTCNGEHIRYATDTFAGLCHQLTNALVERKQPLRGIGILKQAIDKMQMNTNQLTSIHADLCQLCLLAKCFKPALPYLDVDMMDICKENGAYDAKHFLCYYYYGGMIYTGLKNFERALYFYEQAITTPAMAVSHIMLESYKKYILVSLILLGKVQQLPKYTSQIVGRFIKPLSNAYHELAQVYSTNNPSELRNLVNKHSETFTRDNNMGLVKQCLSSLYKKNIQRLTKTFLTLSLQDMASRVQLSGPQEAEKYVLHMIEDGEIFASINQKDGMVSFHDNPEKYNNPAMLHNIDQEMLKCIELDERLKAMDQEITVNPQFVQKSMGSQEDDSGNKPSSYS
Chain of UniProt P08572 (P08572 whole entry): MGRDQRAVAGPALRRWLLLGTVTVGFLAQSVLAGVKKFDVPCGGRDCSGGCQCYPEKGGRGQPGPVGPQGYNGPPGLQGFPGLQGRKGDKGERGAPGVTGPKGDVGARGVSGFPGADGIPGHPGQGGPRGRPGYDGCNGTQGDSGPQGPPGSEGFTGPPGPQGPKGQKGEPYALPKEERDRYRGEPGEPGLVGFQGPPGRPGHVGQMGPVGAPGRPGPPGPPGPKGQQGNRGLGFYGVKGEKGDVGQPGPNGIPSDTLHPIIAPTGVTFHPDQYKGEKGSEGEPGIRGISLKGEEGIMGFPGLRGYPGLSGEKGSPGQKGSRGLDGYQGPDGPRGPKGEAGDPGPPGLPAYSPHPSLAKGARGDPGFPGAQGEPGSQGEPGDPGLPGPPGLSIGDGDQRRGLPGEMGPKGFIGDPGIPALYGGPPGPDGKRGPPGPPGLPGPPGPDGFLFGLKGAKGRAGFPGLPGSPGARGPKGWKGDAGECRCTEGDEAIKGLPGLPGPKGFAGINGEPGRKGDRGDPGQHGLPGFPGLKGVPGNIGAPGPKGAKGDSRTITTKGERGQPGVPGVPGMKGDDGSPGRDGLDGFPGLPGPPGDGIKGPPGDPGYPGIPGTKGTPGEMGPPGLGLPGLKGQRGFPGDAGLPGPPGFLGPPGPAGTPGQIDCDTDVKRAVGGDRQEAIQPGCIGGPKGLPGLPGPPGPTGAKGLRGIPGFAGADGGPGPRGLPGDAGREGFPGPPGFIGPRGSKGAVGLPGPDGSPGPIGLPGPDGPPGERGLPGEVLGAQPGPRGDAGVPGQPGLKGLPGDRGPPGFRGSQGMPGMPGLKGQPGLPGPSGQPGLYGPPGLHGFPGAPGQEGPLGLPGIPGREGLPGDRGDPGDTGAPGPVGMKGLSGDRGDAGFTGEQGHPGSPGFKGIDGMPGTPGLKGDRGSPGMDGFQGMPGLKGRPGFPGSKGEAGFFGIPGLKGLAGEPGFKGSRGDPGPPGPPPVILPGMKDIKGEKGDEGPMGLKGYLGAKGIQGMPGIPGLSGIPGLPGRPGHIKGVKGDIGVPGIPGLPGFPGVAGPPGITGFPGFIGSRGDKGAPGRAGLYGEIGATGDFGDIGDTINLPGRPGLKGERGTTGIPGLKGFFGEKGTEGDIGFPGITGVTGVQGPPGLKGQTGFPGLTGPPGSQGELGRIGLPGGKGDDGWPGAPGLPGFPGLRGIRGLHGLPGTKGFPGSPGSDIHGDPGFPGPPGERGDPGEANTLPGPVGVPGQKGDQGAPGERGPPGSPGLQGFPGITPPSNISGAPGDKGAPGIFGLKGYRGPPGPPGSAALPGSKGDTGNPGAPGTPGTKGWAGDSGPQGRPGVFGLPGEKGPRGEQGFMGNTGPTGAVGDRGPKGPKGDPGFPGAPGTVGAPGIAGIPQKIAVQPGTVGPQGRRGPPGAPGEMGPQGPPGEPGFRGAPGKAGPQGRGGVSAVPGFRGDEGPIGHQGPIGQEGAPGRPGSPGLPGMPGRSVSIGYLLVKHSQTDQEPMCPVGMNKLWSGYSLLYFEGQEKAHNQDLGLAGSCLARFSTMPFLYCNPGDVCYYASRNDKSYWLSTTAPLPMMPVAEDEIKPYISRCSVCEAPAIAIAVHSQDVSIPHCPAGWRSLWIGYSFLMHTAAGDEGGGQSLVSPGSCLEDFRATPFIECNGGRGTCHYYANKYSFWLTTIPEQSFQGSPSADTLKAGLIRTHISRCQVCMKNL
Chain of UniProt O14548 (O14548 whole entry): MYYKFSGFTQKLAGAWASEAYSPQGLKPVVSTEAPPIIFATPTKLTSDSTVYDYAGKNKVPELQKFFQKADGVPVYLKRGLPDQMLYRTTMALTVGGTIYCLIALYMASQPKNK
Chain of UniProt Q9NZJ6 (Q9NZJ6 whole entry): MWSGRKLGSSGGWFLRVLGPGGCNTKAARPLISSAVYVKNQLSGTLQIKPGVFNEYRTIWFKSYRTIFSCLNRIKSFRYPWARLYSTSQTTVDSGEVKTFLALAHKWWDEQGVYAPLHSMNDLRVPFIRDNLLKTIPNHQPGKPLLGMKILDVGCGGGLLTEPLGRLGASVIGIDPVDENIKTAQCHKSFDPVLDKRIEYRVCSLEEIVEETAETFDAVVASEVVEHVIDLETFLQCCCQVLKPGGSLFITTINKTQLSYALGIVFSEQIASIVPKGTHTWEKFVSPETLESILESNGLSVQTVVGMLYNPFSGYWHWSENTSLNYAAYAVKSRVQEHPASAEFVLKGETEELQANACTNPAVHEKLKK
Chain of UniProt P20674 (P20674 whole entry): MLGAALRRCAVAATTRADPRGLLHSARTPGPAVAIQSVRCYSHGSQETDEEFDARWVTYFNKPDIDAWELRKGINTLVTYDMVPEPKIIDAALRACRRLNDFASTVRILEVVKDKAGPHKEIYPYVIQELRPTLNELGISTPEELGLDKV

Target	thermal stability z-score (lipoamide; [1])	thermal stability z-score (lipoamide; arsenate co-treatment: none)	thermal stability z-score (potassium arsenate)
COBLL1 (UniProt Q53SF7)	0.248	0.43	-0.608
COG1 (UniProt Q8WTW3)	-0.441	-0.42	0.183
COG2 (UniProt Q14746)	0.0711	-0.137	0.6
COG3 (UniProt Q96JB2)	1.88	2.29	2.95
COG4 (UniProt Q9H9E3)	-0.919	-1.44	-0.419
COG5 (UniProt Q9UP83)	-0.297	-0.0509	0.793
COG6 (UniProt Q9Y2V7)	-0.00556	-0.0575	-0.012
COG7 (UniProt P83436)	-0.825	-0.928	0.224
COG8 (UniProt Q96MW5)	0.022	0.151	0.149
COL4A2 (UniProt P08572)	-1.15	-0.802	0.138
COL4A3BP (UniProt Q9Y5P4)	-0.466	0.862	0.568
COL5A1 (UniProt P20908)	-1.41	-1.55	0.375
COL5A2 (UniProt P05997)	-3.8	-3.3	1.12
COL12A1 (UniProt Q99715)	-3.01	-2.92	0.59
COLGALT1 (UniProt Q8NBJ5)	-4.85	-4.14	0.633
COMMD1 (UniProt Q8N668)	0.0519	0.0285	-0.333
COMMD2 (UniProt Q86X83)	0.00791	-0.169	-0.00764
COMMD3 (UniProt Q9UBI1)	-0.911	-0.0897	-1.12
COMMD4 (UniProt Q9H0A8)	-0.113	-0.32	-0.322
COMMD5 (UniProt Q9GZQ3)	-0.212	0.573	0.0506
COMMD9 (UniProt Q9P000)	-0.221	-0.146	-0.0631
COMMD10 (UniProt Q9Y6G5)	0.107	0.18	0.307
COMT (UniProt P21964)	0.121	0.102	-0.525
COMTD1 (UniProt Q86VU5)	-0.328	-1.94	-0.237
COPA (UniProt P53621)	-0.0346	0.0865	0.594
COPB1 (UniProt P53618)	0.189	0.0616	0.367
COPB2 (UniProt P35606)	0.165	-0.0303	0.238
COPE (UniProt O14579)	0.165	0.681	0.0279

Target	thermal stability z-score (lipoamide; [1])	thermal stability z-score (lipoamide; arsenate co-treatment: none)	thermal stability z-score (potassium arsenate)
COPG1 (UniProt Q9Y678)	0.243	-0.177	-0.32
COPG2 (UniProt Q9UBF2)	-0.16	-0.253	0.0479
COPRS (UniProt Q9NQ92)	0.227	0.791	-0.822
COPS2 (UniProt P61201)	0.538	-0.0451	0.0289
COPS3 (UniProt Q9UNS2)	0.508	0.201	0.344
COPS4 (UniProt Q9BT78)	0.298	-0.0548	-0.453
COPS5 (UniProt Q92905)	0.384	-0.0535	0.276
COPS6 (UniProt Q7L5N1)	0.0852	-0.522	-0.236
COPS7A (UniProt Q9UBW8)	0.334	0.0778	-0.0728
COPS7B (UniProt Q9H9Q2)	-0.144	-0.241	-0.241
COPS8 (UniProt Q99627)	0.0678	-0.053	0.171
COPZ1 (UniProt P61923)	-0.374	0.0476	0.734
COQ3 (UniProt Q9NZJ6)	0.083	0.759	1.9
COQ5 (UniProt Q5HYK3)	0.471	0.639	1.52
COQ6 (UniProt Q9Y2Z9)	1.2	-0.131	-2.7
COQ7 (UniProt Q99807)	-0.0244	0.331	0.227
COQ9 (UniProt O75208)	-0.364	-0.531	1.61
CORO1B (UniProt Q9BR76)	-0.396	-0.129	-0.66
CORO1C (UniProt Q9ULV4)	-1.05	-0.614	1.13
CORO7 (UniProt P57737)	0.188	0.174	-0.177
COTL1 (UniProt Q14019)	0.575	1.02	0.699
COX4I1 (UniProt P13073)	0.239	0.296	0.514
COX5A (UniProt P20674)	2.24	1.82	1.36
COX5B (UniProt P10606)	1.26	1.21	-0.926
COX6B1 (UniProt P14854)	0.898	0.644	-0.234
COX6C (UniProt P09669)	0.703	0.431	0.836
COX7A2L (UniProt O14548)	0.761	0.522	-0.221
